Test results as given in patent US7829665B2 (priority 2005, dated 2010).

These compounds were tested against T1, full-length NS3/NS4A-2 (HCV NS3 protease) (Hepatitis C virus genotype 1a, UniProt P27958) (assay: NS3-NS4 protease assay / NS3 inhibition assay (RETS1 substrate, fluorescence kinetic read)). Conditions: Table 22; read-out: NS3-NS4 IC50.
T1 construct: Recombinant E. coli or Baculovirus full-length NS3 was diluted to 3.33 μM with assay buffer; made in house; host or cells: E. coli or baculovirus (BV) expression system
Format: biochemical
Summary of the method: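 Ki values come from IC50 fits corrected via Ki=IC50/(1+[S]/Km), with Km 2.03 μM for E. coli and 1.74 μM for baculovirus full-length NS3. Enzyme (2 or 3 nM NS3, respectively, complexed with NS4A-2) sat with compound, top concentration 50 microM, for 10 min at room temperature. Cleavage of RETS1 (8 μM working solution) was then followed by fluorescence (335/495 nm) over 30 min.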

T1 sequence (P27958 1027-1657): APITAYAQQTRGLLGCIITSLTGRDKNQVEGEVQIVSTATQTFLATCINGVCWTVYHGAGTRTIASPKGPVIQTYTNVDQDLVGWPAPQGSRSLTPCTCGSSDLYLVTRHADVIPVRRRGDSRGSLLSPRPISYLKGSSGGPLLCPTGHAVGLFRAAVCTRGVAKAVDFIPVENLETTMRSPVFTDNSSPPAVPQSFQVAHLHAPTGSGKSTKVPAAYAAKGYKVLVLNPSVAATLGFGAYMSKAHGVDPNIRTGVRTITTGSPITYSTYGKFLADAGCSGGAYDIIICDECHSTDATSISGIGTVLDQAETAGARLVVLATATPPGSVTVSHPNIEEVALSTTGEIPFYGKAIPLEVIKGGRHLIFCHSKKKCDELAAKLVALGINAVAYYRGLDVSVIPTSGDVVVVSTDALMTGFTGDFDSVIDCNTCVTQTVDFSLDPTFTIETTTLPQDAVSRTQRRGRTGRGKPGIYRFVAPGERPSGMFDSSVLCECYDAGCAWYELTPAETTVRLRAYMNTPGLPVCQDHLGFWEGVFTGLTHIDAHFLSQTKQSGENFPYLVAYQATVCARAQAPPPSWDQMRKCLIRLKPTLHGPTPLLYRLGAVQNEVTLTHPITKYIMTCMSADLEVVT

Row | Compound | IC50
1 | CC(C)(C)CNC(=O)[C@@]12C[C@H]1/C=C\CCCCC[C@H](NC(=O)OC(C)(C)C)C(=O)N1CCC[C@H]1C(=O)N2 [Compound 2315] | < 1 µM

Same assay, conditions: Table 25; read-out: NS3-NS4 IC50

Row | Compound | IC50
2 | CC(C)(C)OC(=O)N[C@H]1CCCCC/C=C\[C@@H]2C[C@@]2(C(=O)N[S@+]([O-])C(C)(C)C)NC(=O)[C@@H]2C[C@@H](OC(=O)N3Cc4ccccc4C3)CN2C1=O [Compound 2604] | > 10 µM

Same assay, conditions: recombinant E. coli or Baculovirus full-length NS3 with NS4A-2; read-out: NS3-NS4 IC50

Row | Compound | IC50
3 | CC(C)(C)OC(=O)N[C@H]1CCCCC/C=C\[C@@H]2C[C@@]2(C(=O)NS(=O)(=O)N2CCCC2)NC(=O)[C@@H]2CCCN2C1=O [Compound 2207] | < 10 µM
4 | CC(C)(C)OC(=O)N[C@H]1CCCCC/C=C\[C@@H]2C[C@@]2(C(=O)NS(=O)(=O)c2ccc(Cl)s2)NC(=O)[C@@H]2CCCN2C1=O [Compound 2132] | < 10 µM
5 | Cc1ccc(NS(=O)(=O)NC(=O)[C@@]23C[C@H]2/C=C\CCCCC[C@H](NC(=O)OC(C)(C)C)C(=O)N2CCC[C@H]2C(=O)N3)cc1 [Compound 2243] | < 1 µM
6 | CC(C)(C)OC(=O)N[C@H]1CCCCC/C=C\[C@@H]2C[C@@]2(C(=O)NS(=O)(=O)NC2CC2)NC(=O)[C@@H]2CCCN2C1=O [Compound 2201] | < 1 µM
7 | CC(C)(C)OC(=O)N[C@H]1CCCCC/C=C\[C@@H]2C[C@@]2(C(=O)NS(=O)(=O)C2CCCC2)NC(=O)[C@@H]2CCCN2C1=O [Compound 2120] | < 1 µM
8 | COc1ccc(S(=O)(=O)NC(=O)[C@@]23C[C@H]2/C=C\CCCCC[C@H](NC(=O)OC2CCCC2)C(=O)N2C[C@H](OC(=O)N4CCc5ccccc5C4)C[C@H]2C(=O)N3)cc1 [Compound 120] | < 0.1 µM
9 | CC(=O)N[C@H]1CCCCC/C=C\[C@@H]2C[C@@]2(C(=O)NS(=O)(=O)C2CC2)NC(=O)[C@@H]2CCCN2C1=O [Compound 316] | < 10 µM
10 | CC(C)(C)OC(=O)N[C@H]1CCCCC/C=C\[C@@H]2C[C@@]2(C(=O)NS(=O)(=O)NC2CCCCC2)NC(=O)[C@@H]2CCCN2C1=O [Compound 2205] | < 1 µM
11 | CC(C)N(C)S(=O)(=O)NC(=O)[C@@]12C[C@H]1/C=C\CCCCC[C@H](NC(=O)OC(C)(C)C)C(=O)N1CCC[C@H]1C(=O)N2 [Compound 401] | < 10 µM
12 | CC(C)(C)OC(=O)N[C@H]1CCCCC/C=C\[C@@H]2C[C@@]2(C(=O)NCc2ccccn2)NC(=O)[C@@H]2CCCN2C1=O [Compound 500] | > 10 µM
13 | CN(Cc1ccc(Cl)cc1)S(=O)(=O)NC(=O)[C@@]12C[C@H]1/C=C\CCCCC[C@H](NC(=O)OC(C)(C)C)C(=O)N1CCC[C@H]1C(=O)N2 [Compound 2230] | < 10 µM
14 | CC(C)(C)OC(=O)N[C@H]1CCCCC/C=C\[C@@H]2C[C@@]2(C(=O)NS(=O)(=O)NCCc2ccccc2Cl)NC(=O)[C@@H]2CCCN2C1=O [Compound 402] | > 10 µM
15 | CCOC(=O)[C@@]12C[C@H]1/C=C\CCCCC[C@H](NC(=O)OC(C)(C)C)C(=O)N1C[C@H](OC(=O)N3Cc4ccc(OCCN(C)C)cc4C3)C[C@H]1C(=O)N2 [Compound 127] | < 10 µM
16 | CC(C)(C)OC(=O)N[C@H]1CCCCC/C=C\[C@@H]2C[C@@]2(C(=O)NS(=O)(=O)C2CC2)NC(=O)C2Cc3ccccc3CN2C1=O (stereo partly drawn) [Compound 2009, tert-Butyl (1aS,9S,19aR,Z)-19a-(cyclopropylsulfonylcarbamoyl)-10,18-dioxo-1a,4,5,6,7,8,9,10,12,17,17a,18,19,19a-tetradecahydro-1H-11,14-diaza-bicyclo[13.1.0]hexadeca-1(15),2-dieno[11,12-b]isoquinolin-9-ylcarbamate] | < 10 µM
17 | CC(C)(C)OC(=O)N[C@H]1CCCCC/C=C\[C@@H]2C[C@@]2(C(=O)NS(=O)(=O)N(CCC#N)C2CC2)NC(=O)[C@@H]2CCCN2C1=O [Compound 2210] | < 1 µM
18 | COc1ccccc1CCNS(=O)(=O)NC(=O)[C@@]12C[C@H]1/C=C\CCCCC[C@H](NC(=O)OC(C)(C)C)C(=O)N1CCC[C@H]1C(=O)N2 [Compound 415] | > 10 µM
19 | C[C@H](NC(=O)O[C@@H]1C[C@H]2C(=O)N[C@]3(C(=O)O)C[C@H]3/C=C\CCCCC[C@H](NC(=O)OC(C)(C)C)C(=O)N2C1)c1ccc(F)cn1 [Compound 147] | > 10 µM
20 | CC(C)S(=O)(=O)NC(=O)[C@@]12C[C@H]1/C=C\CCCCC[C@H](NC(=O)OC1CCCC1)C(=O)N1C[C@H](OC(=O)N3CCc4ccccc4C3)C[C@H]1C(=O)N2 [Compound 118] | < 0.1 µM
21 | COc1c(C(=O)O)csc1S(=O)(=O)NC(=O)[C@@]12C[C@H]1/C=C\CCCCC[C@H](NC(=O)OC(C)(C)C)C(=O)N1CCC[C@H]1C(=O)N2 [Compound 311] | < 10 µM
22 | CC(C)(C)OC(=O)N[C@H]1CCCCC/C=C\[C@@H]2C[C@@]2(C(=O)NS(=O)(=O)c2cccc(Cl)c2F)NC(=O)[C@@H]2CCCN2C1=O [Compound 2151] | < 1 µM

Row | Compound | IC50
23 | CC(C)(C)OC(=O)N[C@H]1CCCCC/C=C\[C@@H]2C[C@@]2(C(=O)O)NC(=O)[C@@H]2C[C@@H](OC(=O)NCc3ccc(F)cn3)CN2C1=O [Compound 151] | < 10 µM
24 | CC(C)(C)OC(=O)NC1CCCCCCCC=CC2CC2(C(=O)NS(=O)(=O)c2cc(Cl)cc(Cl)c2)NC(=O)C2CCCN2C1=O (stereo not drawn) [Compound 2108] | < 10 µM
25 | CC(C)(C)OC(=O)N[C@H]1CCCCC/C=C\[C@@H]2C[C@@]2(C(=O)NS(=O)(=O)OCCc2ccccc2)NC(=O)[C@@H]2CCCN2C1=O [Compound 801] | < 10 µM
26 | CN(c1cccc(Cl)c1)S(=O)(=O)NC(=O)[C@@]12C[C@H]1/C=C\CCCCC[C@H](NC(=O)OC(C)(C)C)C(=O)N1CCC[C@H]1C(=O)N2 [Compound 404] | < 10 µM
27 | O=C(N[C@H]1CCCCC/C=C\[C@@H]2C[C@@]2(C(=O)NS(=O)(=O)C2CC2)NC(=O)[C@@H]2CCCN2C1=O)OC1CCCC1 [Compound 312] | < 1 µM
28 | CC1CCCC(C)N1S(=O)(=O)NC(=O)[C@@]12C[C@H]1/C=C\CCCCC[C@H](NC(=O)OC(C)(C)C)C(=O)N1CCC[C@H]1C(=O)N2 (stereo partly drawn) [Compound 2223] | < 1 µM
29 | CC(C)(C)OC(=O)N[C@H]1CCCCC/C=C\[C@@H]2C[C@@]2(CNS(=O)(=O)C2CC2)NC(=O)[C@@H]2C[C@@H](OC(=O)N3Cc4cccc(F)c4C3)CN2C1=O [Compound 154] | < 10 µM
30 | CC1CCCN1S(=O)(=O)NC(=O)[C@@]12C[C@H]1/C=C\CCCCC[C@H](NC(=O)OC(C)(C)C)C(=O)N1CCC[C@H]1C(=O)N2 (stereo partly drawn) [Compound 2250] | < 10 µM
31 | CC(C)(C)OC(=O)N[C@H]1CCCCC/C=C\[C@@H]2C[C@@]2(C(=O)O)NC(=O)C2Cc3ccccc3CN2C1=O (stereo partly drawn) [Compound 2001, (1aS,9S,19aR,Z)-9-(tert-Butoxycarbonyl)-10,18-dioxo-1a,4,5,6,7,8,9,10,12,17,17a,18,19,19a-tetradecahydro-1H-11,14-diaza-bicyclo[13.1.0]hexadeca-1(15), 2-dieno[11,12-b]isoquinoline-19a-carboxylic acid] | > 10 µM
32 | CC(C)(C)OC(=O)N[C@H]1CCCCC/C=C\[C@@H]2C[C@@]2(C(=O)NS(=O)(=O)c2cccc(F)c2)NC(=O)[C@@H]2CCCN2C1=O [Compound 2113] | < 10 µM
33 | COc1cccc(NS(=O)(=O)NC(=O)[C@@]23C[C@H]2/C=C\CCCCC[C@H](NC(=O)OC(C)(C)C)C(=O)N2CCC[C@H]2C(=O)N3)c1 [Compound 2240] | < 1 µM
34 | CC(C)(C)OC(=O)N[C@H]1CCCCC/C=C\[C@@H]2C[C@@]2(C(=O)NS(=O)(=O)N2CCCCC2c2cccnc2)NC(=O)[C@@H]2CCCN2C1=O (stereo partly drawn) [Compound 2222] | < 1 µM
35 | CC(C)COC(=O)N[C@H]1CCCCC/C=C\[C@@H]2C[C@@]2(C(=O)NS(=O)(=O)Nc2ccc(Cl)cc2)NC(=O)[C@@H]2CCCN2C1=O [Compound 419] | < 10 µM
36 | CCN(C)S(=O)(=O)NC(=O)[C@@]12C[C@H]1/C=C\CCCCC[C@H](NC(=O)OC(C)(C)C)C(=O)N1CCC[C@H]1C(=O)N2 [Compound 400] | < 10 µM
37 | CC(C)(C)OC(=O)N[C@H]1CCCCC/C=C\[C@@H]2C[C@@]2(C(=O)N[S@+]([O-])C(C)(C)C)NC(=O)[C@@H]2CCCN2C1=O [Compound 2404] | < 1 µM
38 | CS(=O)(=O)NC(=O)[C@@]12C[C@H]1/C=C\CCCCC[C@H](NC(=O)OC1CCCC1)C(=O)N1Cc3ccc(Oc4cccc(Cl)c4)cc3CC1C(=O)N2 (stereo partly drawn) [Compound 2003, Cyclopentyl (1aS,9S,19aR,Z)-15-(3-chlorophenoxy)-19a-(methylsulfonylcarbamoyl)-10,18-dioxo-1a,4,5,6,7,8,9,10,12,17,17a,18,19,19a-tetradecahydro-1H-11,14-diaza-bicyclo[13.1.0]hexadeca-1(15), 2-dieno[11,12-b]isoquinolin-9-ylcarbamate] | < 10 µM
39 | COC(=O)c1csc(S(=O)(=O)NC(=O)[C@@]23C[C@H]2/C=C\CCCCC[C@H](NC(=O)OC(C)(C)C)C(=O)N2CCC[C@H]2C(=O)N3)c1OC [Compound 310] | > 10 µM
40 | CC(C)(C)OC(=O)NC1CCCCCCCC=CC2CC2(C(=O)NS(=O)(=O)C(F)(F)F)NC(=O)C2CCCN2C1=O (stereo not drawn) [Compound 2107] | < 1 µM
41 | COC[C@H]1CCCN1S(=O)(=O)NC(=O)[C@@]12C[C@H]1/C=C\CCCCC[C@H](NC(=O)OC(C)(C)C)C(=O)N1CCC[C@H]1C(=O)N2 [Compound 2251] | < 0.1 µM
42 | CC(C)(C)OC(=O)N[C@H]1CCCCC/C=C\[C@@H]2C[C@@]2(C(=O)N[S@@+]([O-])C(C)(C)C)NC(=O)[C@@H]2CCCN2C1=O [Compound 2401, (1S,4R,6S,14S)tert-Butyl 4-((S)-2-methylpropane-2-sulfinyl)-aminocarbonyl-2,15-dioxo-3,16-diaza-tricyclo[14.3.0.0^4,6]nonadec-7-ene-14-yl carbamate] | < 0.1 µM
